The nature of data set [1]: CO release from CORM-2 suspension, amperometric detection in a sealed flask, triggered by Na2SO3. Type of data set: physicochemical. An excerpt:
An Erlenmeyer flask purchased from Gebr. Rettberg (Gottingen, Germany) was used as reaction space. For insertion of the CO sensor and to seal the reaction space, a conically tapered joint from Schott Medica (Wertheim, Germany) was equipped with a glass guide tube for an electric wire. As a prerequisite for cross referencing with calibration gas, a single-bore stopcock was connected to the Erlenmeyer flask as well as to the conically tapered joint. The integrated CO sensor of the “Ei207D” CO detector (Ei Electronics, Shannon, Ireland) was removed and externally connected using a “Wire Wrap” 0.404 mm^2 wire (Kabeltronik, Denkendorf, Germany) linked with a 1.3 mm accessory shoe (Vogt AG, Lostorf, Switzerland). The wire was glued into the guide tube with “UHU plus endfest” epoxide resin (UHU, Bũhl, Germany) to seal the system. On-line videos were collected monitoring the detector with USB webcams with the Eyeline video surveillance software (NCH Software, Canberra, Australia).
The CO release from CORM-2 was triggered by Na2SO3 and amperiometrically detected. For that, 4.3 mg CORM-2 were placed in the Erlenmeyer flask filled with 15 ml Millipore water and stirred at 130 rpm (Variomag Telesystem, Thermo Scientific, MA). After 25 minutes, 10 mg Na2SO3 were added to the reaction space. CO release in ppm as read from the detector of each system was calibrated with 100 ppm CO calibration gas (diluted in air; from Real Gas (Martinsried, Germany) and normalized, accordingly (see FIG. 1 for results).
A concentration series of CO was generated by transferring different amounts of CORM-2 into 25 mL of a stirred (130 rpm) 333 mg/L aqueous Na2SO3 solution. CO release [ppm] after 60-80 minutes was plotted against the amount of CORM-2 [mg] placed into the system. Following this procedure, CO release [ppm] is expressed as amount of CORM-2 [mg], with one CORM-2 equivalent being defined as the amount of CO released per milligram CORM-2 after 60-80 minutes and when exposed to the experimental conditions described in this section (see FIG. 2B for results). CO release from CORM-2 expressed in CORM-2 equivalents [mg] followed a linear pattern (y=0.0192+1.0199x; r^2>0.99; n=1 for 14 independent measurements).
CO data reported in the example is calculated from the corresponding release from CORM-2 equivalents and if reported for CORM-A1, calculated using linear regression. […] Therefore, CO loss by and from the system was quantified and basis for data correction. For the correction, the loss by and from the system was recorded and added to the data as read from the detector (vide infra). For assessment of CO loss and data correction, CO was generated from CORM-2 in presence of Na2SO3 with stirring at 130 rpm, until reaching a value of approximately 800 ppm. At this point the stirring was stopped. CO loss [ppm] was recorded when a value of 720 ppm was reached and followed an exponential decline (y=717.5*e−0.145x; r^2>0.99; n=5; see FIGS. 3A and 3B for results).

Data set [2] is described as follows: CO release from CORM-2 suspension in Na2SO3 solution as a function of ionic strength. Type of data set: physicochemical. The note with it: n=3. On the procedure: Experiments assessing the impact of the release medium on CO release (see FIG. 5A, 5B) were done in comparison to control experiments, within which 12 mg coated Na2SO3 crystals were measured in simulated gastric fluid without enzymes to control for possible detector interference with sulfites (interference was not observed with these experimental conditions; data not shown). Experiments assessing the impact of the coating procedure on CO release were done in comparison to control experiments, within which 3 mg CORM-2 was suspended in 25 mL of 0.333 g/L Na2SO3 solution (see FIG. 6 for results). In another set of control experiments, the impact of the ionic strength of the release medium and the impact of the salt with which the ionic strength was set (using sodium chloride solutions to set ionic strengths of 0.88 mol/L and 1.8 mol/L, respectively, and magnesium chloride to set an ionic strengths of 1.26 mol/L) on CO release was studied using CORM-2 suspensions. For that, CORM-2 was exposed to 25 mL of 0.333 g/L Na2SO3 in the appropriate release medium (for results, see FIG. 7).

Where only a bound is given, the exact number is not on record here.

For the compound `[C-]#[O+].[C-]#[O+].[C-]#[O+].[C-]#[O+].[C-]#[O+].[C-]#[O+].[Cl][Ru][Cl].[Cl][Ru][Cl]` [CORM-2, Tricarbonyldichlororuthenium(II) dimer], the “CO release of CORM-2 suspended in water” value in data set [1] (4.3 mg CORM-2 in 15 ml water, before Na2SO3 was added) is “no detectable CO release”. Also, the “time to complete CO release after Na2SO3 was added” value in data set [1] (10 mg Na2SO3 added after 25 min) is no more than 25 min. In data set [1] (60-80 minutes in 25 mL of 333 mg/L aqueous Na2SO3, stirred at 130 rpm), the “CO release reached within the time frame” value is reported as greater than 90%. For the same compound, the “time to half maximal CO release” value in data set [1] (CORM-2 suspension control, 3 mg in 25 mL of 0.333 g/L Na2SO3) is 20 min. In data set [1] (after 40 minutes, Na2SO3 triggered), the CO release plateau worked out at 550 ppm. The “time at which CO release plateaus (corrected data)” value in data set [1] (sulfite triggered, corrected for CO loss) is listed as “approximately 140 minutes”. The “reduction of CO release” value in data set [2] (ionic strength 0.88 mol/L set with NaCl, compared with 0.008 mol/L) is on record as 26±9%; in data set [2] (ionic strength 1.26 mol/L set with MgCl2) it was 50±3%; in data set [2] (ionic strength 1.8 mol/L set with NaCl), 53±6%.
